The values below come from US9968587B2, “Heterocycle analogs of CAI-1 as agonists of quorum sensing in vibrio” (THE TRUSTEES OF PRINCETON UNIVERSITY, priority 2013, dated 2018).

For data set [1], the target named is V. cholerae CqsS receptor (Vibrio cholerae serotype O1, UniProt Q9KM66). In words: CqsS agonist bioassay (V. cholerae reporter strain MM920, bioluminescence). Conditions: for QS agonist potency (in words) / level of QS activation (in words): CqsS agonist bioassay; for EC50: mean of triplicate analyses.
From the text: The molecules were bioassayed in a system that exploits the V. cholerae quorum sensing circuit. The bioassay used a bacterial reporter strain to measure the QS response. Values for percent of activation correspond to the level of bioluminescence produced in the bacterial reporter strain at saturating concentrations of molecule compared to the maximal levels produced in the presence of a native autoinducer molecule (Ea-CAI-1). […] The EC50 values correspond to the concentrations that are required to activate quorum sensing to its half-maximal level.
DMSO was used as the negative control.
EC50 values were calculated by Prism 5 using standard settings and are described in the Tables and text with the error representing the 95% confidence interval for the calculated EC50 value.
The values for % response described in the Tables and text describe the maximal luminescence change for each of the analogs as a percent of EaCAI-1 or 18 (set at 100%). One of these molecules was included as a positive standard of activity for each of the assays.
A further data set concerns HapR. In words: Western blot analysis of HapR production. Format: cell-based, Vibrio cholerae. An excerpt:
(§1) In vivo, HapR is a transcription factor that functions as one of two master QS regulators in V. cholerae. Agonism of CqsS leads to increased production of HapR and HapR, in turn, drives the high-cell density gene expression program, which leads to repression of the expression of genes required for virulence and biofilm formation. […] Conversely, production the major V. cholerae virulence factor, TcpA, (toxin-co-regulated pilis protein subunit A), is repressed by both CAI-1 and compound 18.
(§2) Overnight cultures of V. cholerae CqsA-LuxQ—were diluted 1000-fold in AKI medium containing the indicated compounds. The cultures were grown under static conditions at 37° C. for 4 h and then were shaken for 18 h at 37° C. Cells were collected by centrifugation, TcpA and HapR from different samples were analyzed by Western Blot as described in references.

The subject of the next data set is TcpA. The data set can be described thus: Western blot analysis of TcpA production. Format: cell-based, Vibrio cholerae. Conditions: FIG. 3, DMSO control.
From the text: as §1, §2

Data set [2] deals with Vibrio cholerae strain MM920. In words: Cytotoxicity of compound 18 in V. cholerae as assessed by OD600. To be noted: FIG. 9, OD600.
The mark [3] stands for this setting: EC50, QS agonist activity, reporter strain MM920, 4-hour incubation at 30° C.
Where [4] appears, read: read-out: % Response, Percent maximal bioluminescence with respect to Ea-CAI-1, which is set at 100%.
The mark [5] stands for this setting: read-out: % Response, complete bioassay data, percent maximal bioluminescence with respect to Ea-CAI-1 (100%), error = 95% confidence interval.
The mark [6] stands for this setting: EC50, complete bioassay data, error = 95% confidence interval.

Read-outs that look alike come from different tables or passages of the source.

Chain of V. cholerae CqsS receptor (Q9KM66 whole entry, looked up): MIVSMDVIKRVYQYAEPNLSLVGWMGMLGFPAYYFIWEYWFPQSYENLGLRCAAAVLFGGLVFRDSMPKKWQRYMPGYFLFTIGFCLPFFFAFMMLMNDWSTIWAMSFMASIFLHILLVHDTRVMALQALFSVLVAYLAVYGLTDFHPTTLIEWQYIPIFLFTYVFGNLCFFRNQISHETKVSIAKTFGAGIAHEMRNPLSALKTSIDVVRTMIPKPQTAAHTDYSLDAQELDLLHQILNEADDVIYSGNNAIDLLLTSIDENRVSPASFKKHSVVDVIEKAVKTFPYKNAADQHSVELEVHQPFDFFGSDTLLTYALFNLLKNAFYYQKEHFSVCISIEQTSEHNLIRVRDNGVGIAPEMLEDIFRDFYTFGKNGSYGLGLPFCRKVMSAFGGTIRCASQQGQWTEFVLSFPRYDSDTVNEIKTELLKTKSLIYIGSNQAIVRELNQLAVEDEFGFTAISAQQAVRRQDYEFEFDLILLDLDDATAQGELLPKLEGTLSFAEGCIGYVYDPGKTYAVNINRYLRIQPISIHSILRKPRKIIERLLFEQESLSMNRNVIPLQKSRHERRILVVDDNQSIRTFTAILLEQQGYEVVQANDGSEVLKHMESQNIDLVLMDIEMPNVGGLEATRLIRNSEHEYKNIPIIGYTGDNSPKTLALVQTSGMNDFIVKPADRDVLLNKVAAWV

Consider `C/C=C(\N)C(=O)CCCCCCCCC` [Ea-CAI-1, (Z)-3-aminotridec-2-en-4-one, reference compound], for which, in data set [1], the “QS agonist potency (in words)” value is reported as “low nM activity” and the “level of QS activation (in words)” value is reported as “full activation”. The EC50 in data set [1] (setting [3]) was determined as 4.1 nM. The Emax in data set [1] (setting [4]) is 100%. For the same molecule, in data set [1] (setting [5]), the Emax came out at 100 ± 6.6%.
As for `CCCCCCCCCC(=O)[C@@H](O)CC` [CAI-1, (S)-3-hydroxytridecan-4-one], the “production of HapR” value in the data set with HapR (10 μM of CAI-1, FIG. 3, DMSO control) is recorded as “activate production of HapR”. For the same molecule, the “production of virulence factor TcpA” value in the data set with TcpA is “repressed”.
In the case of `CCCCc1ccc(/C=C/C(=O)c2cc[nH]c2)cc1` [Compound 30, 3-(4-butylphenyl)-1-(1H-pyrrol-3-yl)prop-2-en-1-one], it took 88.4 ± 24.9 nM to reach a half-maximal effect in data set [1] (setting [6]) (EC50). For the same molecule, the Emax in data set [1] (setting [5]) is 54 ± 29%.
Take `CCCCCCCCCC(=O)c1c(C)c[nH]c1C` [Compound 20, 1(2,4-dimethyl-1H-pyrrol-3-yl)decan-1-one]: in data set [1], the “QS agonist potency (in words)” value is listed as “lower agonist activity”. This molecule gave an EC50 in data set [1] (setting [6]) of 536 ± 80 nM. The Emax in data set [1] (setting [5]) was determined as 65 ± 16%.
On to `CCCCCCC/C=C/C(=O)c1ccc[nH]1` [Compound 33, (E)-1-(1H-pyrrol-2-yl)dec-2-en-1-one], for which a half-maximal response in data set [1] (setting [6]) (EC50) required 288 ± 92 nM. Besides, the Emax in data set [1] (setting [5]) was determined as 109 ± 31%.
For `C/C=C(\N)C(=O)CCCCCCCCCCCC` [Compound 11, (Z)-3-aminohexadec-2-en-4-one], the “QS agonist potency (in words)” value in data set [1] is “much less active”. For the same molecule, the EC50 was above 225000 nM in data set [1] (setting [3]) and above 5000 nM in data set [1] (setting [6]). Further, the Emax in data set [1] (setting [4]) and in data set [1] (setting [5]) was 38% in each case.
For `CCCCCCCCCC(=O)c1cc(C)[nH]c1C` [Compound 19, 1-(2,5-dimethyl-1H-pyrrol-3-yl)decan-1-one], the “QS agonist potency (in words)” value in data set [1] is recorded as “lower agonist activity”. In data set [1] (setting [6]), the EC50 stood at 679 ± 92 nM. Besides, the Emax in data set [1] (setting [5]) worked out at 66 ± 14%.
`CCCCc1ccc(CCC(=O)c2cc[nH]c2)cc1` [Compound 26, 3-(4-butylphenyl)-1-(1H-pyrrol-3-yl)propan-1-one] yielded an EC50 in data set [1] (setting [6]) of 10.9 ± 4.8 nM. Besides, the Emax in data set [1] (setting [5]) came out at 64 ± 42%.
As for `C/C=C(\N)C(=O)CCCCCCC` [Compound 8, (Z)-3-aminoundec-2-en-4-one], the Emax in data set [1] (setting [4]) is 109%; in data set [1] (setting [5]), 109 ± 25%.
In turn, `CCCCc1ccc(/C=C/C(=O)c2ccc[nH]2)cc1` [Compound 31, 3-(4-butylphenyl)-1-(1H-pyrrol-2-yl)prop-2-en-1-one] had an EC50 in data set [1] (setting [6]) of 731 ± 686 nM. For the same molecule, in data set [1] (setting [5]), the Emax came out at 45 ± 62%.
Regarding `CCCCc1ccc(CCC(=O)c2ccc[nH]2)cc1` [Compound 27, 3-(4-butylphenyl)-1-(1H-pyrrol-2-yl)propan-1-one], the EC50 in data set [1] (setting [6]) came to 2020 ± 1680 nM. Moreover, the Emax in data set [1] (setting [5]) amounted to 75 ± 45%.
With `C/C=C(\N)C(=O)CCCCCCCC` [Compound 9, (Z)-3-aminododec-2-en-4-one], the “QS agonist potency (in words)” value in data set [1] is listed as “low nM activity”. In addition, the “level of QS activation (in words)” value in data set [1] is reported as “full activation”. The figures for the EC50 in data set [1] (setting [3]) and in data set [1] (setting [6]) were 2.6 nM and 2.6 ± 0.32 nM, respectively. The Emax in data set [1] (setting [4]) was 112%; in data set [1] (setting [5]), 112 ± 7%.
As for `O=C(Cc1ccc(-c2ccccc2)cc1)c1ccc[nH]1` [Compound 35, 2-([1,1′-biphenyl]-4-yl)-1-(1H-pyrrol-2-yl)ethanone], in data set [1], the “QS agonist potency (in words)” value is “essentially inactive”. Further, the EC50 in data set [1] (setting [6]) was above 5000 nM. Also, the Emax in data set [1] (setting [5]) came to 26%.
For the molecule `CCCCCCCCCC(=O)c1ccc[nH]1` [Compound 17, 1-(1H-pyrrol-2-yl)decan-1-one], the “level of QS activation (in words)” value in data set [1] is “full level of QS response”. In data set [1] (setting [6]), this molecule displayed an EC50 of 5170 nM. The Emax in data set [1] (setting [5]) is 103 ± 91%.
Regarding `O=C(CCCCCCc1ccccc1)c1ccc[nH]1` [Compound 29, 7-phenyl-1-(1H-pyrrol-2-yl)heptan-1-one], the EC50 in data set [1] (setting [6]) is above 5000 nM. Besides, the Emax in data set [1] (setting [5]) is 60%.
In the case of `CCCCCCCCCC(=O)c1cc[nH]c1` [Compound 18, 1-(1H-pyrrol-3-yl)decan-1-one], in the data set with HapR (1 μM of 18, FIG. 3, DMSO control), the “production of HapR” value was “increased”. In addition, the “production of virulence factor TcpA” value in the data set with TcpA is reported as “repressed”. Also, in data set [2], the “effect on bacterial growth (in words)” value is “does not inhibit bacterial growth”.
`O=C(Cc1ccc(-c2ccccc2)cc1)c1cc[nH]c1` [Compound 34, 2-([1,1′-biphenyl]-4-yl)-1-(1H-pyrrol-3-yl)ethanone]: the “QS agonist potency (in words)” value in data set [1] was “essentially inactive”. The same molecule returned an EC50 in data set [1] (setting [6]) above 5000 nM. For the same molecule, the Emax in data set [1] (setting [5]) was determined as 25%.
On to `C/C=C(\N)C(=O)CCCCC` [Compound 6, (Z)-3-aminonon-2-en-4-one], for which the EC50 in data set [1] (setting [3]) stood at 590 nM; in data set [1] (setting [6]), 594 ± 319 nM. For the same molecule, the figures for the Emax in data set [1] (setting [4]) and in data set [1] (setting [5]) were 100% and 100 ± 57%, respectively.
With `O=C(CCCCCCc1ccccc1)c1cc[nH]c1` [Compound 28, 7-phenyl-1-(1H-pyrrol-3-yl)heptan-1-one], the EC50 in data set [1] (setting [6]) came to 35.8 ± 6.1 nM. Moreover, in data set [1] (setting [5]), the Emax stood at 75 ± 10%.
